Experimental data published in publication PMC5577653, “Lactoferricin Peptides Increase Macrophages' Capacity To Kill Mycobacterium avium” (mSphere, 2017).
Structures can show the parent of a compound that is named as a salt. Square brackets hold non-standard residues; d marks the D form. Ends that are not written are not given here. Peptide text beside a SMILES is read from it.

Legend:
[1] = test system: M. avium-infected macrophages; details: M. avium 2447 SmT-infected BMM; 4 to 120 h; data not shown
[2] = in vitro; details: cell culture medium (supplemented DMEM)
Protocol: (§1) After 0, 0.5, 2, 4, 8, 24, 48, 72, and 96 h of incubation, a 40-µl aliquot was immediately injected for RP-HPLC analysis using an elution gradient of 0 to 100% acetonitrile in 0.05% aqueous trifluoroacetic acid (TFA) for 30 min at a flow rate of 1 ml/min.
(§2) At the end of 0, 0.5, 2, 4, 8, 24, 48, 72, and 96 h, an aliquot was taken from each mixture and analyzed by high-performance liquid chromatography (HPLC). The HPLC (Hitachi Elite Autosampler L-2200, pump L-2130, diode array detector L-2455, and column oven L-2300) was performed with a 150-mm-diameter C18 reverse-phase column (Merck). Each analysis involved an injection volume of 40 µl and elution with 0 to 100% acetonitrile in 0.05% aqueous trifluoroacetic acid (TFA) at a flow rate of 1 ml/min; the detection wavelength was set to 220 nm. The chromatograms were analyzed with EZChrom Elite software, and the peaks were integrated to extract the area.

[3] = test system: M. avium 2447 SmT; experiment: Intramacrophagic M. avium growth, CFU assay in BALB/c BMM; assay type: cell-based, Mycobacterium avium; details: peptides 40 µM, ethambutol 7.2 µM, each alone, 5 days
Protocol: Given that the peptides at up to 40 µM were not toxic to macrophages, we evaluated their effect on M. avium growing inside these cells. Bone marrow-derived macrophages were obtained from BALB/c mice and infected with M. avium 2447 smooth transparent variant (SmT). The different peptides were added at 40 µM, and ethambutol was added at 7.2 µM. After 5 days in culture, the number of intracellular bacteria per culture well was quantified in a CFU assay (Fig. 1D).
BMM at day 10 of culture were infected with 10^6 CFU of M. avium 2447 SmT for 4 h at 37°C in a 7% CO2 atmosphere. After incubation, cells were washed several times to remove noninternalized bacteria and reincubated with new medium with or without 40 µM peptide (76.9 µg/ml LFcin17–30 and D-LFcin17–30, 73.6 µg/ml LFcin17–30 all R, 80.3 µg/ml LFcin17–30 all R), alone or in combination with the antibiotic ethambutol (2 µg/ml or 7.2 µM ethambutol dihydrochloride; Sigma-Aldrich, St. Louis, MO, USA). Each condition was tested in triplicate. After 5 days in culture, the intracellular growth of M. avium 2447 SmT was evaluated by determining the number of CFU, as described previously ([75]).

[4] = test system: M. avium; details: broth culture; cited from earlier work
Source text: In contrast, we now verify that only D-LFcin17–30 induces a significant decrease in mycobacterial growth inside macrophages. However, all peptides were effective when combined with the antibiotic ethambutol. The combination of antimicrobial peptides with conventional antibiotics is of great potential interest, as it might reduce the dosages of each ...

[5] = 40 µM peptide in supplemented DMEM cell culture medium, 37°C, up to 96 h; RP-HPLC C18, UV 220 nm, peak area relative to time zero
Protocol: as §1, §2

CSCC[C@@H](NC(=O)[C@@H](CCCNC(=N)N)NC(=O)[C@@H](Cc1c[nH]c2ccccc12)NC(=O)[C@@H](CCC(N)=O)NC(=O)[C@@H](Cc1c[nH]c2ccccc12)NC(=O)[C@@H](CCCNC(=N)N)NC(=O)[C@@H](CCCNC(=N)N)NC(=O)[C@@H](CS)NC(=O)[C@@H](CCCCN)NC(=O)[C@H](N)Cc1ccccc1)C(=O)N[C@H](CCCCN)C(=O)N[C@H](CCCCN)C(=O)N[C@H](CC(C)C)C(=O)NCC(=O)O [D-LFcin17–30] (H-[dF][dK][dC][dR][dR][dW][dQ][dW][dR][dM][dK][dK][dL]G-OH)
levels of apoptosis or necrosis [1]: no significant changes
metabolised at 96 h, 40 µM [2]: ≤ 30%

CC[C@@H](CO)NCCN[C@@H](CC)CO [ethambutol, ethambutol dihydrochloride]
inhibition of intramacrophagic M. avium growth, compound alone [3]: None of the other peptides or ethambutol alone significantly inhibited M. avium growth

FKCKKWQWKMKKLG [LFcin17–30 all K, LFcin17–30 variant with all arginines replaced with lysines]
activity against M. avium in axenic cultures [4]: all active

FKCRRWQWRMKKLG [LFcin17–30]
degradation of peptide after 96 h of incubation [5]: completely degraded
levels of apoptosis or necrosis [1]: no significant changes
metabolised at 24 h, 40 µM [2]: 50%

FRCRRWQWRMRRLG [LFcin17–30 all R, LFcin17–30 variant with all lysines replaced with arginines]
activity against M. avium in axenic cultures [4]: all active
